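Assay format: 96-well plates, 48-hour exposure. GI50 = concentration required for 50% inhibition of growth.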 Active and inactive are the calls of the source. Rule as the data show it: active = GI50 up to about 1.1 µM and inactive = higher.
Columns and labels:
Assay in all cases: DTP human tumour cell line panel, 48 h
[1] = test system: SR
[2] = test system: EKVX
[3] = test system: SK-MEL-2
[4] = test system: SN12C
[5] = test system: SK-OV-3
[6] = test system: OVCAR-5
[7] = test system: A549
[8] = test system: A498
[9] = test system: LOX IMVI
[10] = test system: RPMI-8226
[11] = test system: OVCAR-3
[12] = test system: MDA-N
[13] = test system: SK-MEL-28
[14] = test system: NCI-H226
[15] = test system: K562
[16] = test system: T47D
[17] = test system: NCI-H23
[18] = test system: UACC-257
[19] = test system: PC-3
[20] = test system: CCRF-CEM
[21] = test system: NCI/ADR-RES
[22] = test system: BT-549
[23] = test system: SNB-19
[24] = test system: MOLT-4
[25] = test system: COLO 205
[26] = test system: KM12
[27] = test system: UO-31
[28] = test system: HCT-15
[29] = test system: IGROV-1
[30] = test system: HOP-62
[31] = test system: M14
[32] = test system: U-251
[33] = test system: DU-145
[34] = test system: ACHN
[35] = test system: SF-295
[36] = test system: HCC 2998
[37] = test system: OVCAR-8
[38] = test system: MDA-MB-231
[39] = test system: SF-539
[40] = test system: SK-MEL-5
[41] = test system: MDA-MB-435
[42] = test system: CAKI-1
[43] = test system: SW-620
[44] = test system: SNB-75
[45] = test system: HOP-92
[46] = test system: 786-0
[47] = test system: MCF7
[48] = test system: NCI-H460
[49] = test system: HCT-116
[50] = test system: UACC-62
[51] = test system: OVCAR-4
[52] = test system: HT-29
[53] = test system: HL-60
[54] = test system: TK-10
[55] = test system: Hs-578T
[56] = test system: RXF 393
[57] = test system: SF-268
[58] = test system: Malme-3M
[59] = test system: NCI-H522

CC1=C2C(=O)O[C@@H](c3ccoc3)[C@]2(C)CCC1=O [FRAXINELLONONE]
GI50 [1]: > 100 µM (inactive) | GI50 [2]: > 100 µM (inactive) | GI50 [3]: > 100 µM (inactive) | GI50 [4]: > 100 µM (inactive) | GI50 [5]: > 100 µM (inactive) | GI50 [6]: > 100 µM (inactive) | GI50 [7]: > 100 µM (inactive) | GI50 [8]: > 100 µM (inactive) | GI50 [9]: > 100 µM (inactive) | GI50 [10]: > 100 µM (inactive) | GI50 [11]: > 100 µM (inactive) | GI50 [12]: > 100 µM (inactive) | GI50 [13]: > 100 µM (inactive) | GI50 [14]: > 100 µM (inactive) | GI50 [15]: > 100 µM (inactive) | GI50 [16]: > 100 µM (inactive) | GI50 [17]: > 100 µM (inactive) | GI50 [18]: > 100 µM (inactive) | GI50 [19]: > 100 µM (inactive) | GI50 [20]: > 100 µM (inactive) | GI50 [21]: > 100 µM (inactive) | GI50 [22]: > 100 µM (inactive) | GI50 [23]: > 100 µM (inactive) | GI50 [24]: > 100 µM (inactive) | GI50 [25]: > 100 µM (inactive) | GI50 [26]: > 100 µM (inactive) | GI50 [27]: > 100 µM (inactive) | GI50 [28]: > 100 µM | GI50 [29]: > 100 µM (inactive) | GI50 [30]: > 100 µM (inactive) | GI50 [31]: > 100 µM (inactive) | GI50 [32]: > 100 µM (inactive) | GI50 [33]: > 100 µM (inactive) | GI50 [34]: > 100 µM (inactive) | GI50 [35]: > 100 µM (inactive) | GI50 [36]: > 100 µM (inactive) | GI50 [37]: > 100 µM (inactive) | GI50 [38]: > 100 µM (inactive) | GI50 [39]: > 100 µM (inactive) | GI50 [40]: > 100 µM (inactive) | GI50 [41]: > 100 µM (inactive) | GI50 [42]: > 100 µM (inactive) | GI50 [43]: > 100 µM (inactive) | GI50 [44]: > 100 µM (inactive) | GI50 [45]: > 100 µM (inactive) | GI50 [46]: > 100 µM (inactive) | GI50 [47]: > 100 µM (inactive) | GI50 [48]: > 100 µM (inactive) | GI50 [49]: > 100 µM (inactive) | GI50 [50]: > 100 µM (inactive)

CC(C)(CC(=O)Nc1ccccc1)C(=O)O
GI50 [1]: > 100 µM (inactive) | GI50 [2]: > 100 µM (inactive) | GI50 [3]: > 100 µM (inactive) | GI50 [4]: > 100 µM (inactive) | GI50 [5]: > 100 µM (inactive) | GI50 [6]: > 100 µM (inactive) | GI50 [7]: > 100 µM (inactive) | GI50 [8]: > 100 µM (inactive) | GI50 [9]: > 100 µM (inactive) | GI50 [10]: > 100 µM (inactive) | GI50 [11]: > 100 µM (inactive) | GI50 [12]: > 100 µM (inactive) | GI50 [13]: > 100 µM (inactive) | GI50 [14]: > 100 µM (inactive) | GI50 [15]: > 100 µM (inactive) | GI50 [16]: > 100 µM (inactive) | GI50 [17]: > 100 µM (inactive) | GI50 [18]: > 100 µM (inactive) | GI50 [19]: > 100 µM (inactive) | GI50 [20]: > 100 µM (inactive) | GI50 [21]: > 100 µM (inactive) | GI50 [51]: > 100 µM (inactive) | GI50 [22]: > 100 µM (inactive) | GI50 [23]: > 100 µM (inactive) | GI50 [24]: > 100 µM (inactive) | GI50 [25]: > 100 µM (inactive) | GI50 [52]: > 100 µM (inactive) | GI50 [26]: > 100 µM (inactive) | GI50 [27]: > 100 µM (inactive) | GI50 [28]: > 100 µM | GI50 [53]: > 100 µM (inactive) | GI50 [29]: > 100 µM (inactive) | GI50 [30]: > 100 µM (inactive) | GI50 [31]: > 100 µM (inactive) | GI50 [32]: > 100 µM (inactive) | GI50 [54]: > 100 µM (inactive) | GI50 [33]: > 100 µM (inactive) | GI50 [34]: > 100 µM (inactive) | GI50 [35]: > 100 µM (inactive) | GI50 [37]: > 100 µM (inactive) | GI50 [38]: > 100 µM (inactive) | GI50 [39]: > 100 µM (inactive) | GI50 [40]: > 100 µM (inactive) | GI50 [41]: > 100 µM (inactive) | GI50 [42]: > 100 µM (inactive) | GI50 [43]: > 100 µM (inactive) | GI50 [45]: > 100 µM (inactive) | GI50 [46]: > 100 µM (inactive) | GI50 [47]: > 100 µM (inactive) | GI50 [48]: > 100 µM (inactive) | GI50 [49]: > 100 µM (inactive) | GI50 [50]: > 100 µM (inactive)

CC(C)=CCC/C(C)=C/CC/C(C)=C/[C@@H]1[C@@H](CO)[C@]1(C)CC/C=C(\C)CCC=C(C)C
GI50 [1]: 19.6 µM (inactive) | GI50 [2]: 20.2 µM (inactive) | GI50 [3]: 43.8 µM (inactive) | GI50 [4]: 41.1 µM (inactive) | GI50 [55]: > 100 µM (inactive) | GI50 [5]: > 100 µM (inactive) | GI50 [6]: 49.4 µM (inactive) | GI50 [7]: 39.8 µM (inactive) | GI50 [8]: > 100 µM (inactive) | GI50 [9]: 11.5 µM (inactive) | GI50 [10]: 25.2 µM (inactive) | GI50 [11]: 52.5 µM (inactive) | GI50 [56]: 23.7 µM (inactive) | GI50 [13]: > 100 µM (inactive) | GI50 [14]: 19.4 µM (inactive) | GI50 [15]: 31.3 µM (inactive) | GI50 [57]: 19.4 µM (inactive) | GI50 [16]: 41.3 µM (inactive) | GI50 [17]: 32 µM (inactive) | GI50 [58]: > 100 µM (inactive) | GI50 [18]: 74.3 µM (inactive) | GI50 [19]: 23.9 µM (inactive) | GI50 [20]: 0.251 µM (active) | GI50 [21]: 22.4 µM (inactive) | GI50 [51]: > 100 µM (inactive) | GI50 [22]: > 100 µM (inactive) | GI50 [23]: > 100 µM (inactive) | GI50 [24]: 28.9 µM (inactive) | GI50 [25]: 63.1 µM (inactive) | GI50 [52]: 42.8 µM (inactive) | GI50 [26]: 35.7 µM (inactive) | GI50 [27]: 18.6 µM (inactive) | GI50 [28]: 30.3 µM | GI50 [29]: 12.5 µM (inactive) | GI50 [30]: 69.7 µM (inactive) | GI50 [31]: 91.4 µM (inactive) | GI50 [32]: 53.7 µM (inactive) | GI50 [54]: 55.2 µM (inactive) | GI50 [59]: 17.1 µM (inactive) | GI50 [33]: 39.6 µM (inactive) | GI50 [34]: 17.2 µM (inactive) | GI50 [35]: 60.8 µM (inactive) | GI50 [37]: 17.1 µM (inactive) | GI50 [38]: 21.6 µM (inactive) | GI50 [39]: 22 µM (inactive) | GI50 [40]: 46 µM (inactive) | GI50 [41]: 85.9 µM (inactive) | GI50 [42]: 46.3 µM (inactive) | GI50 [43]: 22.6 µM (inactive) | GI50 [44]: > 100 µM (inactive) | GI50 [45]: 16.6 µM (inactive) | GI50 [46]: 18.4 µM (inactive) | GI50 [48]: 47.6 µM (inactive) | GI50 [49]: 31.2 µM (inactive)

— ChEMBL document CHEMBL1201862, “PubChem BioAssay data set” (2004)
